Here are results for two compounds from ChEMBL document CHEMBL5370608, “Selective and Bioavailable HDAC6 2-(Difluoromethyl)-1,3,4-oxadiazole Substrate Inhibitors and Modeling of Their Bioactivation Mechanism” (J Med Chem, 2023).

Data set [1] can be described thus: Clearance in C57/BI mouse at 2 mg/kg, iv measured upto 24 hrs by LC-MS/MS analysis. In kind it is ADME, organism-based. Particulars: in vivo.
Data set [2] in a line: Oral bioavailability in C57/BI mouse at 10 mg/kg measured upto 24 hrs by LC-MS/MS analysis. It counts as ADME, organism-based. To be noted: in vivo.
A short description of data set [3]: AUC (0 to infinity) in Wistar Han rat at 10 mg/kg, po measured upto 24 hrs by LC-MS/MS analysis. Particulars: in vivo. It counts as ADME, organism-based. Further details: dose 10 mg/kg, time < 24 hrs, route po.
A short description of data set [4]: Volume of distribution at steady state in C57/BI mouse at 10 mg/kg, po or 2 mg/kg, iv measured upto 24 hrs by LC-MS/MS analysis. In kind it is ADME, organism-based. To be noted: in vivo.
Data set [5] in a line: Half life in Wistar Han rat at 10 mg/kg, po measured upto 24 hrs by LC-MS/MS analysis. It counts as ADME, organism-based. To be noted: in vivo.
Data set [6] can be described thus: AUC (0 to infinity) in C57/BI mouse at 10 mg/kg, po measured upto 24 hrs by LC-MS/MS analysis. In kind it is ADME, organism-based. Also on record: time < 24 hrs, dose 10 mg/kg, route po. Particulars: in vivo.
Data set [7] is described as follows: Oral bioavailability in Wistar Han rat at 10 mg/kg measured upto 24 hrs by LC-MS/MS analysis. It counts as ADME, organism-based. To be noted: in vivo.
Data set [8] in a line: AUC (0 to infinity) in Wistar Han rat at 1 mg/kg, po measured upto 24 hrs by LC-MS/MS analysis. It counts as ADME, organism-based. Further details: time < 24 hrs, dose 1 mg/kg, route po. To be noted: in vivo.
Data set [9] is described as follows: Oral bioavailability in C57/BI mouse at 1 mg/kg measured upto 24 hrs by LC-MS/MS analysis. In kind it is ADME, organism-based. Particulars: in vivo.
The nature of data set [10]: Clearance in C57/BI mouse at 0.5 mg/kg, iv measured upto 24 hrs by LC-MS/MS analysis. It counts as ADME, organism-based. Particulars: in vivo.
The target in data set [11] is T1, Protein deacetylase HDAC6 (Homo sapiens, UniProt Q9UBN7).
T1 sequence (Q9UBN7 whole entry): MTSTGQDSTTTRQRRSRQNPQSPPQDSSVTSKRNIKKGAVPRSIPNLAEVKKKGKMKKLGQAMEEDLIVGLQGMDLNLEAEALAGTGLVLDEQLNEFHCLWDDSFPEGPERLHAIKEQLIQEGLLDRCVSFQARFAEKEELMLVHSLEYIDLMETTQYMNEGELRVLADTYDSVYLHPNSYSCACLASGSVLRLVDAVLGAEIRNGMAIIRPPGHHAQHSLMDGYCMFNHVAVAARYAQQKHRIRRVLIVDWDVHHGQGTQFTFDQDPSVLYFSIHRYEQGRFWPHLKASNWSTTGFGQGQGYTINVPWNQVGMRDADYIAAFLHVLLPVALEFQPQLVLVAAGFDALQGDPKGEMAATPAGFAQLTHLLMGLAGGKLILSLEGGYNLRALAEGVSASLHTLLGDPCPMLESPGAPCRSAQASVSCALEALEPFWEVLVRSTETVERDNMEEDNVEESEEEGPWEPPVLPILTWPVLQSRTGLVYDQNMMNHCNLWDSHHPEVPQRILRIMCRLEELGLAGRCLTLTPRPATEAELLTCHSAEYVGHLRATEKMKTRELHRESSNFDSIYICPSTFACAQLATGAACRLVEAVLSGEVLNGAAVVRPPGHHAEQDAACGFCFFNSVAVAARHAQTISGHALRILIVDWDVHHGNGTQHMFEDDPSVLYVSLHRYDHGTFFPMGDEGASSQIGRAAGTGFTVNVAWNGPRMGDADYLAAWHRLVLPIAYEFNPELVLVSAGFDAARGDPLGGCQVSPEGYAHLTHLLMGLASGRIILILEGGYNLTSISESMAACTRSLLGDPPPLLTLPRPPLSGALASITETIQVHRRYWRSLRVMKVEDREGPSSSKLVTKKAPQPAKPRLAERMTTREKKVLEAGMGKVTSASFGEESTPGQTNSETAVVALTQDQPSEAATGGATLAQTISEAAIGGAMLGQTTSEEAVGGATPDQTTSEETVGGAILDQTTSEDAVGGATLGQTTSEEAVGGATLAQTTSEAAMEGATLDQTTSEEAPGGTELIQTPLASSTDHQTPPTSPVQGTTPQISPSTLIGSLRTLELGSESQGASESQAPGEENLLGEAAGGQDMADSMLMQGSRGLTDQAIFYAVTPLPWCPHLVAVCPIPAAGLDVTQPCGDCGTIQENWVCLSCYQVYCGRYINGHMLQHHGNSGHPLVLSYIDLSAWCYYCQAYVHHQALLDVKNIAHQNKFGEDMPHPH
Nature of the data set: Inhibition of HDAC6 (unknown origin) incubated for 20 hrs.

The nature of data set [12]: Half life in Wistar Han rat at 1 mg/kg, po measured upto 24 hrs by LC-MS/MS analysis. In kind it is ADME, organism-based. To be noted: in vivo.
The nature of data set [13]: Oral bioavailability in Wistar Han rat at 1 mg/kg measured upto 24 hrs by LC-MS/MS analysis. It counts as ADME, organism-based. Particulars: in vivo.
Data set [14] has as its system Sodium-dependent noradrenaline transporter. Kind of data set: Inhibition of NET (unknown origin) at 49 uM relative to control. Particulars: Homo sapiens.
The nature of data set [15]: Half life in C57/BI mouse at 0.5 mg/kg, iv measured upto 24 hrs by LC-MS/MS analysis. It counts as ADME, organism-based. Particulars: in vivo.
Data set [16] is described as follows: Half life in C57/BI mouse at 1 mg/kg, po measured upto 24 hrs by LC-MS/MS analysis. Particulars: in vivo. In kind it is ADME, organism-based.
Data set [17] addresses cAMP and cAMP-inhibited cGMP 3',5'-cyclic phosphodiesterase 10A (Homo sapiens) (UniProt Q9Y233). Nature of the data set: Inhibition of PDE10A2 (unknown origin) at 91 uM relative to control.
Data set [18] addresses 3',5'-cyclic-AMP phosphodiesterase 4D (Homo sapiens) (UniProt Q08499). Nature of the data set: Inhibition of PDE4D (unknown origin) at 64 uM relative to control.
Data set [19] deals with THP-1. Nature of the data set: Cytotoxicity against human THP-1 cells assessed as reduction in cell viability measured upto 250 uM by alamar blue staining based assay. In kind it is functional.
In data set [20] the target is GABA-A receptor; anion channel (Homo sapiens) (UniProt P14867+P47870+P18507+P28472+P48169+Q99928+Q9UN88+P34903+O00591+O14764+Q8N1C3+P18505+P78334+P47869+P31644+Q16445). Nature of the data set: Inhibition of GABAA (unknown origin) at 34 uM relative to control. In kind it is protein-complex assay.

Calls of active or inactive are those of the source. No cut-off for these calls is given here.

Sequence of 3',5'-cyclic-AMP phosphodiesterase 4D (Homo sapiens) (Q08499 whole entry): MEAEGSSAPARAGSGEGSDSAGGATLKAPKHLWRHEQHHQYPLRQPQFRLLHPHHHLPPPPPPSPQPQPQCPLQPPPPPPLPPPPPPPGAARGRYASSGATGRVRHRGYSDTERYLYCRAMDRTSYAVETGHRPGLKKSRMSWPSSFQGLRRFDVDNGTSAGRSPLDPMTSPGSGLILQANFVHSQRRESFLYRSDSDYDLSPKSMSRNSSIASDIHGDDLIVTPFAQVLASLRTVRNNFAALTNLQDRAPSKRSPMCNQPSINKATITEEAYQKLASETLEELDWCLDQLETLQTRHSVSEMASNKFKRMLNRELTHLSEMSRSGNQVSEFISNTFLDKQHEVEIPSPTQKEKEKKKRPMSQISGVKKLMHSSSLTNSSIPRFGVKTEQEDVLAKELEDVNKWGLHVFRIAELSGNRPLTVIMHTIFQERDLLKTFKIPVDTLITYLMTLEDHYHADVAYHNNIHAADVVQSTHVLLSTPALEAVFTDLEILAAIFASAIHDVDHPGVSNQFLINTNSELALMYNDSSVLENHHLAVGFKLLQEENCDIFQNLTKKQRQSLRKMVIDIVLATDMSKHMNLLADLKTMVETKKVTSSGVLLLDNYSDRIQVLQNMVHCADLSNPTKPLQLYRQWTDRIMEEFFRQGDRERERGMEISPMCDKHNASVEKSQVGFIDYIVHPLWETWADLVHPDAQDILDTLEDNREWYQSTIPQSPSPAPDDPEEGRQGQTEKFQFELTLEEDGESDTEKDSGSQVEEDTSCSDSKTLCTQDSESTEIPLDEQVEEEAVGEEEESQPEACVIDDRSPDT
Sequence of cAMP and cAMP-inhibited cGMP 3',5'-cyclic phosphodiesterase 10A (Homo sapiens) (Q9Y233 whole entry): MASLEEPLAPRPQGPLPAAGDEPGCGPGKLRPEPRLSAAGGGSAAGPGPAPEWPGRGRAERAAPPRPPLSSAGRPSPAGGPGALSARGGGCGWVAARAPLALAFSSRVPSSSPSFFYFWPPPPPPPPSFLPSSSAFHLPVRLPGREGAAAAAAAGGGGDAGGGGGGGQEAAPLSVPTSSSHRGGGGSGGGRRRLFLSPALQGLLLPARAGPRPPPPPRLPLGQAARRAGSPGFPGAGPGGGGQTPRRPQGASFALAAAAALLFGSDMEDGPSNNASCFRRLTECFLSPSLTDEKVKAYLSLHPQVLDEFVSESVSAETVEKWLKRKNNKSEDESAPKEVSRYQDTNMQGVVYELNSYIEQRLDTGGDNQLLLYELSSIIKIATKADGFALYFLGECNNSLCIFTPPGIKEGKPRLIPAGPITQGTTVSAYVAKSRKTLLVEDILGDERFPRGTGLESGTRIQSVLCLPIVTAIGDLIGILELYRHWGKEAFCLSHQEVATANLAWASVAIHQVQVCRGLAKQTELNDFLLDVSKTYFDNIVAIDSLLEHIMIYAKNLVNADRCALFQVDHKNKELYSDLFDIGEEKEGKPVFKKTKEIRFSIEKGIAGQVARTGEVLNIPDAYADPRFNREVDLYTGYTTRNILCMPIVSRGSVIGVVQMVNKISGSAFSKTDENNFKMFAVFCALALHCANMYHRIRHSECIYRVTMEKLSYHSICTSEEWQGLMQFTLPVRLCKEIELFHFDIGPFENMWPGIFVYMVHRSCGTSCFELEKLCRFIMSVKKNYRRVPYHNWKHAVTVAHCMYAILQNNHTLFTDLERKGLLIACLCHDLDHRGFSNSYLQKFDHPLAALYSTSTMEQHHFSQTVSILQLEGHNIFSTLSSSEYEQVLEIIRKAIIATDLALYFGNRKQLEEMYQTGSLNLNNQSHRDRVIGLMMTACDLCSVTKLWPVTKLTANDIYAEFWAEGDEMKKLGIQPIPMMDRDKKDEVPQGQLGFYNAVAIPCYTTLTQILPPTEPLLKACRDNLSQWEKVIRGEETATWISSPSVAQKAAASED

For `O=C(NO)c1cnc(NC2(c3ccccc3)CCC(F)(F)CC2)nc1`, the clearance in data set [1] came out at 140 mL/min/kg. For the same compound, the bioavailability in data set [2] worked out at 12%; in [7] it was 19%. For the same compound, the AUC(0-inf) in data set [3] was determined as 0.05 µM·h; in [6], 0.4 µM·h. The Vdss in data set [4] worked out at 1.6 L/kg. The compound further showed a half-life in data set [5] of 2.1 h.

The compound `FC(F)c1nnc(-c2ccc(Cn3nnc(-c4ccccn4)n3)nc2)o1` had an AUC(0-inf) in [8] of 15 µM·h. In addition, the bioavailability in data set [9] amounted to 110%; in data set [13], 100%. This compound also showed a clearance in data set [10] of 2.4 mL/min/kg. In data set [11], this compound returned an IC50 of 1 nM. In addition, the half-life in data set [12] was 10 h; in [15], 4.7 h; in data set [16], 5.3 h. Also, the inhibition result in data set [14], in data set [17], in [18] and in data set [20] was “Active” throughout. Further, the outcome in [19] was inactive.
